The results in this text go back to patent US10882843B2, “5-aminopyrazole carboxamide derivative as BTK inhibitor and preparation method and pharmaceutical composition thereof” (SUZHOU SINOVENT PHARMACEUTICALS CO., LTD., priority 2016, dated 2021).

One test addresses Recombinant Btk (Homo sapiens, UniProt Q06187). Description: Kinase activity (BTK) inhibition assay, TR-FRET. Format: biochemical. To be noted: read-out: BTK kinase inhibitory activity grade (A/B/C). How it is done:
Kinase Activity (BTK) Inhibition Assay
The inhibitory effects of the compounds disclosed herein on BTK kinase activity were tested in an assay based on a time resolved fluorescence resonance energy transfer (TR-FRET) method. Recombinant Btk was pre-incubated with the compound disclosed herein in an assay buffer containing 50 mM. Tris pH 7.4, 10 mM MgCl2, 2 mM MnCl2, 0.1 mM EDTA, 1 mM DTT, 20 nM SEB, 0.1% BSA, 0.005% tween-20 at room temperature for 1 hour. The reaction was initiated by the addition of ATP (at the ATP Km concentration) and the peptide substrate (Biotin-[…]-NH2). After incubation for 1 hour at room temperature, an equal volume of stop solution containing 50 mM HEPES pH 7.0, 800 mM KF, 20 mM EDTA, 0.1% BSA, p-Tyr66 antibody linked with Eu cryptate and streptavidin-labeled XL665 was added to stop the reaction. The plate was incubated for an additional hour at room temperature and then the TR-FRET signal was read on a BMG PHERAstar FS instrument (ex337 nm, em 620 nm/665 nm). Based on the ratio of the signal of fluorescence at […] to 665 nm, the enzyme activity was calculated with an increased compound concentration. IC50 of each compound was obtained by fitting the data to the four-parameter equation of Graphpad Prism software.

Test [1] deals with diffuse large B-cell lymphoma cell line TMD-8. Description: Pharmacodynamic assay, TMD-8 xenograft in NOD.SCID mice. Format: in vivo. Conditions: p.o. daily for 21 days. How it is done: Severe immunodeficiency NOD.SCID mice were purchased from Beijing Vital River Laboratory Animal Technology Co., Ltd., and were housed in SPF grade animal room. After TMD-8 cells were cultured to the sufficient amount, the cells were collected by centrifugation and washed twice with PBS. Finally, the cells were resuspended in serum-free RPMI 1640 medium plus Matrigel (1:1 v/v). 0.2 ml of cell suspension was injected subcutaneously on the right flank of each mouse using 1 ml syringe and 25 G syringe needle. The tumor size was measured with a caliper after about one week post injection. The tumor volume was calculated according to the following formula: tumor volume=(length×width^2)/2. When the tumor volume reached about 100-200 mm^3, the mice were grouped and p.o. administered daily for 21 days.

The target of the next test is LYN (Homo sapiens, UniProt P07948). Description: In vitro kinase selectivity assay, LYN (Z'-Lyte). Conditions: read-out: LYN kinase inhibitory activity grade. Format: biochemical. Here is the method: (§1) The assay platform for EGFR and ITK kinase activities was established using time-resolved fluorescence resonance energy transfer-based method; the assay platform for LCK, SRC and LYN kinase activities was established using Z′-Lyte method; and the assay platform for TEC and JAK3 kinase activities was established using Lance Ultra method. The inhibitory effects of the compounds disclosed herein on different kinase activities were tested separately for each compound at 11 concentrations. The IC50 value of each compound was calculated using Graphpad Prism software.
LYN, sequence (P07948 whole entry, species assumed): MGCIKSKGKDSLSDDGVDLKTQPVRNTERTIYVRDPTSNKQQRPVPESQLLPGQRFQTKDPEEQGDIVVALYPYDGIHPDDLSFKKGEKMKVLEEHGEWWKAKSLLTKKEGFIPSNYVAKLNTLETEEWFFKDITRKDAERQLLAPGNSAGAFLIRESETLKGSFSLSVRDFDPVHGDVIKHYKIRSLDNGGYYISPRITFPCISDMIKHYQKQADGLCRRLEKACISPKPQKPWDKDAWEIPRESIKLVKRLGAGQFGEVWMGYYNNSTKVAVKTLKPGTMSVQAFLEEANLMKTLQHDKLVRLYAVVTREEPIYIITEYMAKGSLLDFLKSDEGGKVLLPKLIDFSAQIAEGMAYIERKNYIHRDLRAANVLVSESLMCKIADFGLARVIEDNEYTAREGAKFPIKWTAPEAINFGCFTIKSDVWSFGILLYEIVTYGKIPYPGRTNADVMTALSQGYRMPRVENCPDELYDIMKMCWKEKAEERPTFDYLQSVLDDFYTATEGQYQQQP

For a further test, the target named is T1, TEC (Homo sapiens, UniProt P42680).
T1 sequence (P42680 1-631): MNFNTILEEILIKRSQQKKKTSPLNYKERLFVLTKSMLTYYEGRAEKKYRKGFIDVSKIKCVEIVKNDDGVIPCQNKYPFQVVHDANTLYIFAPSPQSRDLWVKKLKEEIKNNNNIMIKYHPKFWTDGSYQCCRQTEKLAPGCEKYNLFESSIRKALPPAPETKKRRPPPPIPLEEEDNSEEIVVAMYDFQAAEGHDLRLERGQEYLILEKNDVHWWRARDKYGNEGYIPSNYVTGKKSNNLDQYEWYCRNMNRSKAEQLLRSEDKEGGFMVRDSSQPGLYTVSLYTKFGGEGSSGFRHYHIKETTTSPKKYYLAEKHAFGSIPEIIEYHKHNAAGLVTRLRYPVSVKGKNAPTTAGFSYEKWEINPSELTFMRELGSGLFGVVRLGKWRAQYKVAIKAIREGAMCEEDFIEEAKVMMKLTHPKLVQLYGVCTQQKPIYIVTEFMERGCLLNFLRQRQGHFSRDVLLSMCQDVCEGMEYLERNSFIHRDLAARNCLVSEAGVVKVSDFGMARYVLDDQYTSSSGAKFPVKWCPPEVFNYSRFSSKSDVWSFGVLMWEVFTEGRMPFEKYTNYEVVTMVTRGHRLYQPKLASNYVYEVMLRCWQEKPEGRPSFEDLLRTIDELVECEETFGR
Description: In vitro kinase selectivity assay, TEC (Lance Ultra). Format: biochemical. Conditions: read-out: TEC kinase inhibitory activity grade. How it is done: as §1

The next test has as its target LCK (Homo sapiens, UniProt P06239). Description: In vitro kinase selectivity assay, LCK (Z'-Lyte). To be noted: read-out: LCK kinase inhibitory activity grade. Format: biochemical. How it is done:
as §1

For a further test, the target named is EGFR (Homo sapiens, UniProt P00533). Description: In vitro kinase selectivity assay, EGFR (TR-FRET). Format: biochemical. Conditions: read-out: EGFR kinase inhibitory activity grade. How it is done: as §1
EGFR, sequence (P00533 25-1210): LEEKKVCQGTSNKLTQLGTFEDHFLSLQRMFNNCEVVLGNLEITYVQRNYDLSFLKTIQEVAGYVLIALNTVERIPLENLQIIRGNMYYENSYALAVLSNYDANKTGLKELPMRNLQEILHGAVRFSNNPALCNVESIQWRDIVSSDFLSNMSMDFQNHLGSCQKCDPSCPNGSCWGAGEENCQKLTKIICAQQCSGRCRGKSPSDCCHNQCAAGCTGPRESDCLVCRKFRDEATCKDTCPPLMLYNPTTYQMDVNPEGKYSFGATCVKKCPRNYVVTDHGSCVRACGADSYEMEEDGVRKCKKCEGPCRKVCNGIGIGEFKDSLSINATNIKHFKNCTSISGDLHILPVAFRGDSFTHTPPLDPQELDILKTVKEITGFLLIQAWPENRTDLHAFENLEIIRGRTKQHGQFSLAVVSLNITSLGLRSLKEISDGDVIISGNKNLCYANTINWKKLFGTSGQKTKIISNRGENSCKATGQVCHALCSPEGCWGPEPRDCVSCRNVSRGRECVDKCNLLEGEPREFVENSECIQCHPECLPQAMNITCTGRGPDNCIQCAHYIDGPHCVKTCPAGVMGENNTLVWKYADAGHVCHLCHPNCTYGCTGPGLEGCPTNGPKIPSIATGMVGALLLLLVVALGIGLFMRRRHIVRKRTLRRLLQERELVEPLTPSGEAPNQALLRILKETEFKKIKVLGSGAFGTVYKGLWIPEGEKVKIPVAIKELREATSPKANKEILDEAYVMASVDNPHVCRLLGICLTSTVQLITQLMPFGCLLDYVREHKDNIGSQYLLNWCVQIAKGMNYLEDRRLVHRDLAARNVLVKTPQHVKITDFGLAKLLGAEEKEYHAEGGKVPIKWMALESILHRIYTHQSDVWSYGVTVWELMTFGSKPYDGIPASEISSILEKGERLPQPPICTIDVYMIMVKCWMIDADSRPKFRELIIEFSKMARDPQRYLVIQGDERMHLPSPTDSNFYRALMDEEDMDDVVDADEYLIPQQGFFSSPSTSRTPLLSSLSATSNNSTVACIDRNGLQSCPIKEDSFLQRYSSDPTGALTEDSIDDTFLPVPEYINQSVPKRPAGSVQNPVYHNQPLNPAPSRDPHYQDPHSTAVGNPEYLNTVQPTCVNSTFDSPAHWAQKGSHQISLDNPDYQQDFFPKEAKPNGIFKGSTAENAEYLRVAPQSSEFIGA
(In general: TR-FRET usually uses a lanthanide donor and a delayed reading to cut background.)

A further test deals with T2, ITK (Homo sapiens, UniProt Q08881).
T2 sequence (Q08881 1-620): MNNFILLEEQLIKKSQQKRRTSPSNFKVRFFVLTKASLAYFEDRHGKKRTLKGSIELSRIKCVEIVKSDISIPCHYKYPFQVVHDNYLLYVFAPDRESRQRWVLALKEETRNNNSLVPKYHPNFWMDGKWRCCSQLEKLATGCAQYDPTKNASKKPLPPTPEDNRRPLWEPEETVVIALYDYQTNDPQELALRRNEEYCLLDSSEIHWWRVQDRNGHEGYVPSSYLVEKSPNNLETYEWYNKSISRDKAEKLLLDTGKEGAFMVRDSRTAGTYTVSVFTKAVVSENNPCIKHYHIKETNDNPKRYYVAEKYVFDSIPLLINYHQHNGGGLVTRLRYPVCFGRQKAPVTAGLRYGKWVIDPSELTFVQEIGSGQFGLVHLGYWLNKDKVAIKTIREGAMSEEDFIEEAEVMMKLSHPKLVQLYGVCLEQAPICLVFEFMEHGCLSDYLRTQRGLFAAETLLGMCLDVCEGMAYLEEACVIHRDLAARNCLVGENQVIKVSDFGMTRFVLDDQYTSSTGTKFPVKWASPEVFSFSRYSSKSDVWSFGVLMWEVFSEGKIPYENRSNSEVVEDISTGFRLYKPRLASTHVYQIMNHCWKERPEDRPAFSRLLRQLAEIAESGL
Description: In vitro kinase selectivity assay, ITK (TR-FRET). Format: biochemical. Conditions: read-out: ITK kinase inhibitory activity grade. Here is the method:
as §1

The next test addresses SRC (Homo sapiens, UniProt P12931). Description: In vitro kinase selectivity assay, SRC (Z'-Lyte). Format: biochemical. To be noted: read-out: SRC kinase inhibitory activity grade. How it is done:
as §1

Each structure is given as a SMILES string.

Recombinant Btk, sequence (Q06187 whole entry): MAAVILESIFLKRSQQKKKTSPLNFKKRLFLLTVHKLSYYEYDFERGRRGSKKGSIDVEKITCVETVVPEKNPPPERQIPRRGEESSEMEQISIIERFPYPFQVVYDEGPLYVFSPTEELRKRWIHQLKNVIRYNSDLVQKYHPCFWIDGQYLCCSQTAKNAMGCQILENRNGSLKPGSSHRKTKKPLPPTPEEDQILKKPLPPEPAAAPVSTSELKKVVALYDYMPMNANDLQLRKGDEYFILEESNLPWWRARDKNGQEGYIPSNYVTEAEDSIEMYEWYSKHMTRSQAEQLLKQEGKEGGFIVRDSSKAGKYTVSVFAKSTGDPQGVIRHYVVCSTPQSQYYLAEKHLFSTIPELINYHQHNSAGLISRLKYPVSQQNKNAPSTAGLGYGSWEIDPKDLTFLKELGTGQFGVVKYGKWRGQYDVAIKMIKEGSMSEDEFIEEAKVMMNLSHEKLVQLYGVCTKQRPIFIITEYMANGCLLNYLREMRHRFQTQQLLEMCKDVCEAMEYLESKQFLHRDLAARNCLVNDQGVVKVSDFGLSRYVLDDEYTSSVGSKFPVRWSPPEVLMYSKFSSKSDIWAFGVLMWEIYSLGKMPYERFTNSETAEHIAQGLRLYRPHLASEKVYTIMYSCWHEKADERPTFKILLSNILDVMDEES
SRC, sequence (P12931 whole entry, species assumed): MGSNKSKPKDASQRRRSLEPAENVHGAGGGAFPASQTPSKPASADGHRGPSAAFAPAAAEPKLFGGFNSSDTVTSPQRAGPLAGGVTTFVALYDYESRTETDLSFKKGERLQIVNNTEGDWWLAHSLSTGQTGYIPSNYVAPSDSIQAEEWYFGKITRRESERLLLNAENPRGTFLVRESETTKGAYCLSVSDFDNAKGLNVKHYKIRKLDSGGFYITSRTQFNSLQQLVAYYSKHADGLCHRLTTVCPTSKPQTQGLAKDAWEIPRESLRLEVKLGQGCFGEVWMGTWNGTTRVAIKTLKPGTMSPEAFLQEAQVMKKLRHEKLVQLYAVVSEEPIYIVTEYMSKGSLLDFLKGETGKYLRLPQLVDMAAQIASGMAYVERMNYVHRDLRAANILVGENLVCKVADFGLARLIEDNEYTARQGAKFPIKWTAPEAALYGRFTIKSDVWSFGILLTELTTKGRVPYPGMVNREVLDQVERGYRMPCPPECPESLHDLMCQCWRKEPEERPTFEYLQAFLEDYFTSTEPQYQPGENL
LCK, sequence (P06239 whole entry, species assumed): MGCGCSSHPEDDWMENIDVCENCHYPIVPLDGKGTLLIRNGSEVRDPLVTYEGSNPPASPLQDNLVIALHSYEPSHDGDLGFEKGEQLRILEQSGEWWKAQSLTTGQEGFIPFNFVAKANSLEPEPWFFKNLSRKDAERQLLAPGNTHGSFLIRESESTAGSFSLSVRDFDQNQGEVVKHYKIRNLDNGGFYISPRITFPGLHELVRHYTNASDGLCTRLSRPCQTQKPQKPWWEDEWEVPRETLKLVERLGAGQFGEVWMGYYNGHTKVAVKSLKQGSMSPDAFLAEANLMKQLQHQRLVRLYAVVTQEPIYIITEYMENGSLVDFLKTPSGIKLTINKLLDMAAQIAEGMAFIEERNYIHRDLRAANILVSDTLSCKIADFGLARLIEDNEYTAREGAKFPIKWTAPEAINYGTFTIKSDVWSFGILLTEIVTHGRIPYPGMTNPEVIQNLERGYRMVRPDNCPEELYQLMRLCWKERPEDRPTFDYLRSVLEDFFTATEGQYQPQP

Take `C[C@H]1CC[C@@H](n2nc(-c3ccc(Oc4ccc(Cl)cn4)cc3)c(C(N)=O)c2N)CN1C#N` [WS-401, 5-amino-3-(4-((5-chloropyridin-2-yl)oxy)phenyl)-1-((3R,6S)-1-cyano-6-methylpiperidin-3-yl)-1H-pyrazole-4-carboxamide]: the IC50 on Recombinant Btk is under 100 nM.

`C[C@@H]1CC[C@H](n2nc(-c3ccc(Oc4ccc(Cl)cn4)cc3)c(C(N)=O)c2N)CN1C#N` [WS-402, 5-amino-3-(4-((5-chloropyridin-2-yl)oxy)phenyl)-1-((3S,6R)-1-cyano-6-methylpiperidin-3-yl)-1H-pyrazole-4-carboxamide]: the IC50 on Recombinant Btk was in the range of 100 to 1000 nM.

For the molecule `C[C@@H]1CC[C@@H](n2nc(-c3ccc(Oc4ccc(Cl)cn4)cc3)c(C(N)=O)c2N)CN1C#N` [WS-403, 5-amino-3-(4-((5-chloropyridin-2-yl)oxy)phenyl)-1-((3R,6R)-1-cyano-6-methylpiperidin-3-yl)-1H-pyrazole-4-carboxamide], the IC50 at Recombinant Btk fell in the range of 100 to 1000 nM.

On to `C[C@H]1CC[C@H](n2nc(-c3ccc(Oc4ccc(Cl)cn4)cc3)c(C(N)=O)c2N)CN1C#N` [WS-404, 5-amino-3-(4-((5-chloropyridin-2-yl)oxy)phenyl)-1-((3S,6S)-1-cyano-6-methylpiperidin-3-yl)-1H-pyrazole-4-carboxamide], for which, on Recombinant Btk, the IC50 lay in the range of 100 to 1000 nM.

As for `N#CN1CC(n2nc(-c3ccc(Oc4ccc(Cl)cn4)cc3)c(C(N)=O)c2N)CCC12CC2` (centres unmarked) [WS-405, 5-amino-3-(4-((5-chloropyridin-2-yl)oxy)phenyl)-1-(4-cyano-4-azaspiro[2.5]oct-6-yl)-1H-pyrazole-4-carboxamide], the IC50 at Recombinant Btk is under 100 nM.

As to `NC(=O)c1c(-c2ccc(Oc3ccc(Cl)cn3)cc2)nn(C2CCC3(CC3)N(C(=O)/C=C/CO)C2)c1N` (centres unmarked) [WS-406, (E)-5-amino-3-(4-((5-chloropyridin-2-yl)oxy)phenyl)-1-(4-(4-hydroxybut-2-enoyl)-4-azaspiro[2.5]oct-6-yl)-1H-pyrazole-4-carboxamide], at Recombinant Btk, the IC50 was under 100 nM.

For `C=CC(=O)N1CC(n2nc(-c3ccc(Oc4ccc(Cl)cn4)cc3)c(C(N)=O)c2N)CCC12CC2` (centres unmarked) [WS-407, 1-(4-acryloyl-4-azaspiro[2.5]oct-6-yl)-5-amino-3-(4-((5-chloropyridin-2-yl)oxy)phenyl)-1H-pyrazole-4-carboxamide], the IC50 on Recombinant Btk is under 100 nM.

Consider `N#CN1CC(n2nc(-c3ccc(Oc4ccc(F)cc4F)cc3)c(C(N)=O)c2N)CCC12CC2` (centres unmarked) [WS-408, 5-amino-1-(4-cyano-4-azaspiro[2.5]oct-6-yl)-3-(4-(2,4-difluorophenoxy)phenyl)-1H-pyrazole-4-carboxamide], for which the IC50 at Recombinant Btk is under 100 nM.

As for `NC(=O)c1c(-c2ccc(Oc3ccc(F)cc3F)cc2)nn(C2CCC3(CC3)N(C(=O)/C=C/CO)C2)c1N` (centres unmarked) [WS-409, (E)-5-amino-3-(4-(2,4-difluorophenoxy)phenyl)-1-(4-(4-hydroxybut-2-enoyl)-4-azaspiro[2.5]oct-6-yl)-1H-pyrazole-4-carboxamide], at Recombinant Btk, the IC50 was under 100 nM.

With `C=CC(=O)N1CC(n2nc(-c3ccc(Oc4ccc(F)cc4F)cc3)c(C(N)=O)c2N)CCC12CC2` (centres unmarked) [WS-410, 1-(4-acryloyl-4-azaspiro[2.5]oct-6-yl)-5-amino-3-(4-(2,4-difluorophenoxy)phenyl)-1H-pyrazole-4-carboxamide], on Recombinant Btk, the IC50 is under 100 nM.

For the molecule `N#CN1C[C@H](n2nc(-c3ccc(Oc4ccc(F)cc4F)cc3)c(C(N)=O)c2N)CCC12CC2` [WS-411, (R)-5-amino-1-(4-cyano-4-azaspiro[2.5]oct-6-yl)-3-(4-(2,4-difluorophenoxy)phenyl)-1H-pyrazole-4-carboxamide], in test [1], the “growth of TMD-8 tumor in vivo” value was “significantly inhibited the growth”. In addition, the IC50 was 100 to 1000 nM on LYN; under 100 nM at TEC; under 100 nM at Recombinant Btk; 100 to 1000 nM at LCK; over 1000 nM at EGFR; over 1000 nM at ITK. For the same molecule, at SRC, the IC50 was over 1000 nM.

Take `N#CN1C[C@@H](n2nc(-c3ccc(Oc4ccc(F)cc4F)cc3)c(C(N)=O)c2N)CCC12CC2` [WS-412, (S)-5-amino-1-(4-cyano-4-azaspiro[2.5]oct-6-yl)-3-(4-(2,4-difluorophenoxy)phenyl)-1H-pyrazole-4-carboxamide]: the IC50 on Recombinant Btk was over 1000 nM.

On to `N#CN1C[C@@H](n2nc(-c3ccc(Oc4ccc(Cl)cn4)cc3)c(C(N)=O)c2N)CCC12CC2` [WS-414, (S)-5-amino-3-(4-((5-chloropyridin-2-yl)oxy)phenyl)-1-(4-cyano-4-azaspiro[2.5]oct-6-yl)-1H-pyrazole-4-carboxamide], for which the IC50 at Recombinant Btk was in the range of 100 to 1000 nM.

With `CC#CC(=O)N1C[C@@H](n2nc(-c3ccc(Oc4ccc(Cl)cn4)cc3)c(C(N)=O)c2N)CCC12CC2` [WS-417], the IC50 on Recombinant Btk lay within 100 to 1000 nM.

On to `CC#CC(=O)N1C[C@H](n2nc(-c3ccc(Oc4ccc(F)cc4F)cc3)c(C(N)=O)c2N)CCC12CC2` [WS-421, (R)-5-amino-1-(4-(2-butynoyl)-4-azaspiro[2.5]oct-6-yl)-3-(4-(2,4-difluorophenoxy)phenyl)-1H-pyrazole-4-carboxamide], for which the IC50 at Recombinant Btk was under 100 nM.

Consider `CC#CC(=O)N1C[C@H](n2nc(-c3ccc(Oc4ccc(F)cc4F)cc3)c(C(N)=O)c2N)CCC12CC2` [WS-422, (R)-5-amino-1-(4-(2-butynoyl)-4-azaspiro[2.5]oct-6-yl)-3-(4-(2,4-difluorophenoxy)phenyl)-1H-pyrazole-4-carboxamide], for which, in test [1], the “growth of TMD-8 tumor in vivo” value is “significantly inhibited the growth”.
